3 molecules from patent US11566222B2, “γδ T cell expansion procedure” (KING'S COLLEGE LONDON, priority 2014, dated 2023) can be followed below.

The test system of assay [1] is Vγ9Vδ2 T-cells. As to the kind of experiment: Ex-vivo expansion of Vγ9Vδ2 T-cells from PBMC. The assay is classed as cell-based, human. How it is done: To enrich these cells, peripheral blood mononuclear cells (PBMC) were activated with ZA and cultured in AB serum-containing RPMI 1640 medium, supplemented with IL-2/IL-15. Specifically, PBMC isolated from normal (healthy) donors (n=21 separate donors) and from patients with EOC (n=13 separate donors) were cultured with ZA (1 μg/ml day 1 only), IL-2 (100 U/ml) and IL-15 (10 ng/ml). Cytokines and medium were added daily.
Isolated PBMC cells were then reconstituted in GMP TexMACS Media (Miltenyi) at 3×10^6 cell/mL. To the reconstituted cells, 1 μg/mL Zoledronic Acid (Zometa, Novartis) was added as an activator, together with 100 U/mL IL-2 and 5 ng/mL TGF-β. The cells were incubated at 37° C. in air containing 5% carbon dioxide.
On day 3, cells were fed with 100 U/mL IL-2 and 5 ng/mL TGF-β. Thereafter, on days 4, 7, 9, 11, 13, 15, cells were counted by trypan exclusion using a hemocytometer. If the number of T-cells was less than 1×10^6 cells/mL, a further 100 U/mL IL-2 and 5 ng/mL TGF-β were added. If the number of T-cells was between 1×10^6 and 2×10^6 cells/mL, an equivalent volume of TexMACS medium was added together with 100 U/mL IL-2 and 5 ng/mL TGF-β. If the number of T-cells was greater than 2×10^6 […], double the volume of TexMACS media was added together with 100 U/mL IL-2 and 5 ng/mL TGF-β.
After 15 days, the cells were analyzed by flow cytometry with a pan γδ antibody to confirm the enrichment of γδ T-cells in these cultures.
The methodology of Example 1 above was repeated using a different basic medium, specifically RPMI+human AB serum. In particular, PBMC (3×10^6 cells/ml) were cultured in RPMI+10% human AB serum containing zoledronic acid (1 μg/ml)+IL-2 (100 U/ml; method 1) or zoledronic acid (1 μg/ml)+IL-2 (100 U/ml)+TGF-β (5 ng/ml; method 2). The percentage of γδ T-cells present in each culture was evaluated on the day of initiation of the cultures (day 1) and after a further 14 days (day 15) and the results are shown in FIG. 9B.

Assay [2] deals with U937 tumor cells or KG-1 tumor cells. Briefly: Cytotoxicity assay (luciferase) with cytarabine-pulsed tumor cells, 1:1 effector:target. It counts as cell-based. The conditions noted are these: sub-lethal doses, 24 h pulse before T-cells. The protocol:
Cytotoxicity assays were established in triplicate at a 1:1 effector:target ratio in 96 well plates containing either U937 tumor cells or KG-1 tumor cells. Where indicated, tumor cells were pulsed for 24 h with the indicated concentrations of cytarabine, prior to addition of γδ T-cells, produced either using the method of the invention (M2) or the method of the comparative example (M1) above. There were three donors for the M2 cells and two donors for the M1 cells. A control group received no cytarabine.
Residual tumor cell viability was measured after overnight co-culture with Vγ9Vδ2 T-cells by luciferase assay.

As for TGF-β, the “cell expansion on addition of TGF-β” value in assay [1] (RPMI + 10% human AB serum, ZA + IL-2, 5 ng/ml TGF-β, day 15) is reported as “enhanced cell expansion”. Moreover, in assay [1] (TexMACS medium, ZA + IL-2, 5 ng/mL TGF-β, 15 days), the “yield of Vγ9Vδ2 T-cells on addition of TGF-β” value is “substantially enhanced yields”.
`Nc1ccn([C@@H]2O[C@H](CO)[C@@H](O)[C@@H]2O)c(=O)n1` [cytarabine]: the “effect of cytarabine on anti-tumor activity of method 2 Vγ9Vδ2 T-cells” value in assay [2] is reported as “potentiated the anti-tumor activity”.
“IL-15: cytokine supplement (10 ng/ml) in comparative expansion”: the “yield of cells on addition of IL-15” value in assay [1] (RPMI 1640 with AB serum, ZA + IL-2, IL-15 10 ng/ml) is given as “no significant difference”.
